Measurements published in US10513529B2, “1,2,4-triazolo-[3,4-b]-1,3,4-thiadiazole derivatives” (GALENICA S.A., priority 2016, dated 2019).

Experiments:
[1] = test system: PC-3 human hormone-resistant prostate cancer cell line; test: MTT cytostatic-cytotoxic activity, PC-3; type: cell-based; conditions: PC-3, 48 h treatment
[2] = test system: MCF-7 human breast cancer cell line; test: MTT cytostatic-cytotoxic activity, MCF-7; type: cell-based
[3] = test system: MOLT-4 human acute T-leukemia cell line; test: MTT cytostatic-cytotoxic activity, MOLT-4; type: cell-based; conditions: MOLT-4, 48 h treatment
C57BI/6 mice = test: in vivo; conditions: i.p., acute toxicity
Summary of the method: (§1)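 Acute toxicity in male and female C57BI/6 mice, judged by lethality. Compounds given i.p. at several doses starting at 100mg/kg. Dosed as a suspension in corn oil after initial dissolution in 10% DMSO.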

in vivo = conditions: both sexes, mouse, in vivo, ip; C57BI/6 mice, acute toxicity
Summary of the method: as §1

[4] = test system: T-47D human breast cancer cell line; test: MTT cytostatic-cytotoxic activity, T-47D; type: cell-based; conditions: 48 h treatment
[5] = test system: SKOV-3 human ovarian cancer cell line; test: MTT cytostatic-cytotoxic activity, SKOV-3; type: cell-based
Summary of the method: (§2)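 SKOV-3 and OVCAR-3 cells seeded at 1×10^4 cells/ml, treated after 24 h with 1-100 μmol/l compound for 48 h in triplicate. Viability by MTT (3 h, 37 °C), absorbance at 540 nm; GI50, TGI and IC50 computed from treated versus 24 h and 72 h control readings.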

[6] = test system: OVCAR-3 human ovarian cancer cell line; test: MTT cytostatic-cytotoxic activity, OVCAR-3; type: cell-based; conditions: OVCAR-3, 48 h treatment
Summary of the method: as §2

[7] = Homo sapiens, kills 50% of the cells

COc1cc(Cc2nnc3sc(-c4ccccc4)nn23)c(S(=O)(=O)N(C)C)cc1OC [TS167, 3-[2-(N,N-dimethylsulfamoyI)-4,5-dimethoxy-benzyl]-6-phenyl-1,2,4-triazolo[3,4-b]-1,3,4-thiazole]
GI50 ([1]; Homo sapiens): 62 µM
IC50 [1, 7]: > 100 µM
TGI [1]: >100 µM
GI50 ([2]; Homo sapiens, MCF7, 48 h, MCF-7, 48 h treatment): 65 µM
IC50 ([2]; Homo sapiens, MCF7, MCF-7, 48 h treatment, kills 50% of the cells): > 100 µM
TGI ([2]; MCF-7, 48 h treatment): >100 µM
GI50 ([3]; Homo sapiens): 42 µM
IC50 [3, 7]: > 100 µM
TGI [3]: >100 µM
LD10 (C57BI/6 mice): >500 mg/kg
LD50 (C57BI/6 mice): >500 mg/kg
LD50 (in vivo): > 500 mg/kg
TGI [4]: >100 µM
GI50 ([4]; Homo sapiens, T47D, 48 h): 52 µM
IC50 ([4]; Homo sapiens, T47D, kills 50% of the cells): > 100 µM
GI50 ([5]; Homo sapiens, SK-OV-3, SKOV-3, 48 h treatment): 80 µM
IC50 ([5]; Homo sapiens, SK-OV-3, SKOV-3, 48 h treatment, kills 50% of the cells): > 100 µM
TGI ([5]; SKOV-3, 48 h treatment): >100 µM
GI50 ([6]; Homo sapiens): 65 µM
IC50 [6, 7]: > 100 µM
TGI [6]: >100 µM
